Data on 23 compounds can be found in patent US7585859B2, “PDE4B inhibitors and uses therefor” (Plexxikon, Inc., priority 2004, dated 2009).

Experiment [1] deals with T1, PDE4B: The catalytic domain of human PDE4B from S152-S528 (Homo sapiens, UniProt Q07343).
T1 construct: His6 (N); thrombin cleavage site (N); made in house; host or cells: E. coli
As to the kind of experiment: PDE4 IC50 determination by Scintillation Proximity Assay, PDE4B. The class given is biochemical. Particulars: Table 1B, Formula I compounds; read-out: IC50 PDE4B. On the procedure: (§1) IC50s were determined by Scintillation Proximity Assay (SPA). The principle of the assay is based on the fact that cAMP, the PDE4 substrate, binds weakly to Yittrium Silicate SPA beads, whereas AMP, the product of PDE4 hydrolysis binds strongly. Thus, the extent of PDE4 hydrolysis of a sample of [^3H]cAMP can be measured because only the
(§2) [^3H]AMP produced by PDE4 hydrolysis will bind to the SPA beads and produce a scintillation signal.
(§3) PDE4 enzymes used for IC50 assays were:
(§4) Enzyme was stored in 50% glycerol at −20°.
(§5) In addition to the compound dilutions, each assay plate contained control wells with 1 μl of DMSO (to define 0% enzyme inhibition) or 1 μl of 200 μM roflumilast (to define 100% enzyme inhibition). […] Next, 10 μl of PDE4 enzyme in assay buffer was added and the plates were shaken for 30 s. at 1000 rpm to start the cAMP hydrolysis reaction. The concentrations of enzyme used were: PDE4B, 80 ng/ml; PDE4D, 4 ng/ml; PDE4B2, 2.5 μl of 50% glycerol stock/ml; PDE4D5 0.083 μl of 50% glycerol stock/ml. Assay plates were covered and incubated for 30 min. at 30°. […] The assay plates were covered with clear plastic film, centrifuged for 1 min. at 1000 RPM to settle the SPA beads, and counted using a Wallac TriLux scintillation counter. IC50's were calculated from the raw assay data by non-linear regression curve fitting using the Assay Explorer software package from MDL.
For orientation: SPA uses beads or plates that emit light when radiolabelled molecules are held near them.

A further experiment addresses T2, PDE4D (Homo sapiens, UniProt Q08499).
T2 construct: PDE4D: The catalytic domain of human PDE4B from S3 16-V692; His6 (N); thrombin cleavage site (N); made in house; host or cells: E. coli
Briefly: PDE4 IC50 determination by Scintillation Proximity Assay, PDE4D. It counts as biochemical. How it is done:
as §1, §2, §3, §4, §5

The mark [2] stands for this setting: Table 1B, Formula I compounds, read-out: IC50 PDE4D.

Like-named read-outs stand apart in the source and are kept apart here. Bounds are passed on as bounds.

T1 sequence (Q07343 with tags, fused parts or gaps): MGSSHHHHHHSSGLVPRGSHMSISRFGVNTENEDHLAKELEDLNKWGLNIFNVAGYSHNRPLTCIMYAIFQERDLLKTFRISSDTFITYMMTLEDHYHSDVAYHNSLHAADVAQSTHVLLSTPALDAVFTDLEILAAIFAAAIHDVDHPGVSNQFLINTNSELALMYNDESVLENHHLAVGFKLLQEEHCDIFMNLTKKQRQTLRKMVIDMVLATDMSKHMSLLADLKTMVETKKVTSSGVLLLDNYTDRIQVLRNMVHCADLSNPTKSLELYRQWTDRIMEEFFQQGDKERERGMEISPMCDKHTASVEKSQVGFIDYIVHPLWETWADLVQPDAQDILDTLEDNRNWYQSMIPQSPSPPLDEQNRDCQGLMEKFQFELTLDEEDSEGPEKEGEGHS
T2 sequence (Q08499 380-756): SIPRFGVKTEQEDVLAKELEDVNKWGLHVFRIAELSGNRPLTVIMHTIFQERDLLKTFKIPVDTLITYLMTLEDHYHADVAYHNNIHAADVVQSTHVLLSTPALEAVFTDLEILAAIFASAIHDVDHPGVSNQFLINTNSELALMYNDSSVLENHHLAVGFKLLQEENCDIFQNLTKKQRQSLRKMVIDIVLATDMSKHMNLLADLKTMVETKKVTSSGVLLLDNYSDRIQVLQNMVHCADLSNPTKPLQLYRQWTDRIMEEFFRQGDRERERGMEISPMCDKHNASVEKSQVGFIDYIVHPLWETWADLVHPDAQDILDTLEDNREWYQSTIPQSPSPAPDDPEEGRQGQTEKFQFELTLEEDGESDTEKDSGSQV

With `CC1C2=C(CC(C)(C)CC2=O)Nc2sc(C(N)=O)c(N)c21` (stereo not drawn) [Compound 1-4, 3-Amino-4,7,7-trimethyl-5-oxo-4,5,6,7,8,9-hexahydro-thieno[2,3-b]quinoline-2-carboxylic acid amide], the IC50 (in experiment [1]; at PDE4D (setting [2])) was over 10 µM in each case.
Take `COc1cc(C#N)c(Nc2sc(C(=O)c3ccc(Cl)cc3)c(N)c2C#N)cc1OC` [Compound 1-19, 4-Amino-5-(4-chloro-benzoyl)-2-(2-cyano-4,5-dimethoxy-phenylamino)-thiophene-3-carbonitrile]: the IC50 (in experiment [1]; on PDE4D (setting [2])) was under 10 µM each time.
`Cc1cc(Cl)ccc1Nc1sc(C(=O)c2cc3cc(Cl)ccc3o2)c(N)c1C#N` [Compound 1-23, 4-Amino-5-(5-chloro-benzofuran-2-carbonyl)-2-(4-chloro-2-methyl-phenylamino)-thiophene-3-carbonitrile]: the IC50 (in experiment [1]; at PDE4D (setting [2])) was over 10 µM each time.
Take `CCOC(=O)c1c(Nc2c(C)cccc2C)sc(C(=O)c2ccc(Br)cc2)c1N` [Compound 1-24, 4-Amino-5-(4-bromo-benzoyl)-2-(2,6-dimethyl-phenylamino)-thiophene-3-carboxylic acid ethyl ester]: the IC50 (in experiment [1]; on PDE4D (setting [2])) was over 10 µM in each case.
As to `N#Cc1c(Nc2ccccc2)sc(C(=O)Nc2nccs2)c1N` [Compound 1-25, 3-Amino-4-cyano-5-phenylamino-thiophene-2-carboxylic acid thiazol-2-yl amide], the IC50 (in experiment [1]; on PDE4D (setting [2])) was under 10 µM each time.
Consider `Cc1cc(NC(=O)c2sc(Nc3ccccc3)c(C#N)c2N)no1` [Compound 1-26, 3-Amino-4-cyano-5-phenylamino-thiophene-2-carboxylic acid (5-methyl-isoxazol-3-yl)-amide], for which the IC50 (in experiment [1]; at PDE4D (setting [2])) was under 10 µM in each case.
Take `Cc1ccc(C(=O)c2sc(NCCN3CCCCC3)c(C#N)c2N)c(C)c1` [Compound 1-38, 4-Amino-5-(2,4-dimethyl-benzoyl)-2-(2-piperidin-1-yl-ethylamino)-thiophene-3-carbonitrile]: the IC50 (in experiment [1]; at PDE4D (setting [2])) was over 10 µM throughout.
Take `COc1ccc(OC)c(C(=O)c2sc(NCCN3CCCCC3)c(C#N)c2N)c1` [Compound 1-39, 4-Amino-5-(2,5-dimethoxy-benzoyl)-2-(2-piperidin-1-yl-ethylamino)-thiophene-3-carbonitrile]: the IC50 (in experiment [1]; at PDE4D (setting [2])) was over 10 µM throughout.
Take `COc1ccc(C(=O)c2sc(NCCN3CCCCC3)c(C#N)c2N)c(OC)c1` [Compound 1-41, 4-Amino-5-(2,4-dimethoxy-benzoyl)-2-(2-piperidin-1-yl-ethylamino)-thiophene-3-carbonitrile]: the IC50 (in experiment [1]; on PDE4D (setting [2])) was over 10 µM each time.
With `COC(=O)C(CC(C)C)Nc1sc(C(=O)c2ccc(OC)cc2OC)c(N)c1C#N` (stereo not drawn) [Compound 1-42, 2-[4-Amino-3-cyano-5-(2,4-dimethoxy-benzoyl)-thiophen-2-ylamino]-4-methyl-pentanoic acid methyl ester], the IC50 in experiment [1] was under 10 µM; at PDE4D (setting [2]) it was over 10 µM.
The like results for `COc1ccc(C(=O)c2sc(NC3CCOC3=O)c(C#N)c2N)c(OC)c1` (stereo not drawn) [Compound 1-44, 4-Amino-5-(2,4-dimethoxy-benzoyl)-2-(2-oxo-tetrahydro-furan-3-ylamino)-thiophene-3-carbonitrile] were, in that order, under 10 µM and over 10 µM.
The like results for `N#Cc1c(NCCN2CCCCC2)sc(C(=O)c2coc3ccccc23)c1N` [Compound 1-45, 4-Amino-5-(benzofuran-3-carbonyl)-2-(2-piperidin-1-yl-ethylamino)-thiophene-3-carbonitrile] were, in that order, over 10 µM and over 10 µM.
The corresponding values for `N#Cc1c(NCCN2CCCCC2)sc(C(=O)c2ccccc2Cl)c1N` [Compound 1-46, 4-Amino-5-(2-chloro-benzoyl)-2-(2-piperidin-1-yl-ethylamino)-thiophene-3-carbonitrile] are over 10 µM and over 10 µM.
For `N#Cc1c(NCCN2CCCCC2)sc(C(=O)c2cccc(Cl)c2)c1N` [Compound 1-47, 4-Amino-5-(3-chloro-benzoyl)-2-(2-piperidin-1-yl-ethylamino)-thiophene-3-carbonitrile], the IC50 (in experiment [1]; on PDE4D (setting [2])) was over 10 µM each time.
For `N#Cc1c(NCCN2CCCCC2)sc(C(=O)c2csc3ccccc23)c1N` [Compound 1-48, 4-Amino-5-(benzo[b]thiophene-3-carbonyl)-2-(2-piperidin-1-yl-ethylamino)-thiophene-3-carbonitrile], the IC50 (in experiment [1]; on PDE4D (setting [2])) was over 10 µM in each case.
Regarding `Cc1c(C(=O)c2sc(Nc3ccccc3F)c(C#N)c2N)cnn1-c1ccccc1` [Compound 1-49, 4-Amino-2-(2-fluoro-phenylamino)-5-(5-methyl-1-phenyl-1H-pyrazole-4-carbonyl)-thiophene-3-carbonitrile], the IC50 (in experiment [1]; at PDE4D (setting [2])) was under 10 µM in each case.
For `Cc1c(C(=O)c2sc(NCCN3CCCCC3)c(C#N)c2N)cnn1-c1ccccc1` [Compound 1-51, 4-Amino-5-(5-methyl-1-phenyl-1H-pyrazole-4-carbonyl)-2-(2-piperidin-1-yl-ethylamino)-thiophene-3-carbonitrile], the figures for the IC50 (in experiment [1]; on PDE4D (setting [2])) were under 10 µM and over 10 µM, respectively.
The like results for `COC(=O)C(CC(C)C)Nc1sc(C(=O)c2cnn(-c3ccccc3)c2C)c(N)c1C#N` (stereo not drawn) [Compound 1-52, 2-[4-Amino-3-cyano-5-(5-methyl-1-phenyl-1H-pyrazole-4-carbonyl)-thiophen-2-ylamino]-4-methyl-pentanoic acid methyl ester] were, in that order, under 10 µM and over 10 µM.
The like results for `COC(=O)C(CCSC)Nc1sc(C(=O)c2cnn(-c3ccccc3)c2C)c(N)c1C#N` (stereo not drawn) [Compound 1-53, 2-[4-Amino-3-cyano-5-(5-methyl-1-phenyl-1H-pyrazole-4-carbonyl)-thiophen-2-ylamino]-4-methylsulfanyl-butyric acid methyl ester] were, in that order, over 10 µM and over 10 µM.
The like results for `COc1ccc(CNc2sc(C(=O)c3cnn(-c4ccccc4)c3C)c(N)c2C#N)cc1OC` [Compound 1-54, 4-Amino-2-(3,4-dimethoxy-benzylamino)-5-(5-methyl-1-phenyl-1H-pyrazole-4-carbonyl)-thiophene-3-carbonitrile] were, in that order, under 10 µM and under 10 µM.
`Cc1c(C(=O)c2sc(NC3CCOC3=O)c(C#N)c2N)cnn1-c1ccccc1` (stereo not drawn) [Compound 1-56, 4-Amino-5-(5-methyl-1-phenyl-1H-pyrazole-4-carbonyl)-2-(2-oxo-tetrahydro-furan-3-ylamino)-thiophene-3-carbonitrile]: the IC50 in experiment [1] was under 10 µM; at PDE4D (setting [2]), over 10 µM.
On to `CCc1ccccc1Nc1sc(C(=O)c2cnn(-c3ccccc3)c2C)c(N)c1C#N` [Compound 1-58, 4-Amino-2-(2-ethyl-phenylamino)-5-(5-methyl-1-phenyl-1H-pyrazole-4-carbonyl)-thiophene-3-carbonitrile], for which the IC50 (in experiment [1]; on PDE4D (setting [2])) was under 10 µM in each case.
Consider `COc1cccc(C(=O)c2sc(Nc3cccc(C#N)c3)nc2N)c1` [Compound 2-64, 3-[4-Amino-5-(3-methoxy-benzoyl)-thiazol-2-ylamino]-benzonitrile], for which the IC50 at PDE4D (second part of Table 2B (2-23 to 2-103), column 5, column is PDE4D in first part, read-out: IC 50 vs. indicated assay h TNFα) was over 10 µM.
